The NIST ThermoML archive (doi:10.1016/j.jct.2012.06.023)

Experiment: xn = mol fraction of the nth substance listed
Conditions: for surface tension liquid-gas: Wilhelmy plate; for viscosity: 101 kPa, Liquid, Concentric cylinders viscometry

CCCCCCCO [heptan-1-ol] + CN(C)C=O
Conditions | surface tension liquid-gas, 298.15 K [mN/m] | surface tension liquid-gas, 303.15 K [mN/m] | surface tension liquid-gas, 308.15 K [mN/m] | surface tension liquid-gas, 313.15 K [mN/m] | viscosity, 298.15 K [mPa·s] | viscosity, 303.15 K [mPa·s] | viscosity, 308.15 K [mPa·s] | viscosity, 313.15 K [mPa·s]
x2 = 0 | 26.47 | 25.38 | 24.33 | 23.5 | 5.944 | 5.069 | 4.333 | 3.726
x2 = 0.1852 | 27.06 | 25.94 | 24.87 | 24.01 | 3.662 | 3.061 | 2.599 | 2.21
x2 = 0.3466 | 27.51 | 26.35 | 25.25 | 24.34 | 2.48 | 2.044 | 1.734 | 1.465
x2 = 0.4928 | 27.98 | 26.77 | 25.64 | 24.69 | 1.77 | 1.452 | 1.238 | 1.048
x2 = 0.6004 | 28.74 | 27.52 | 26.38 | 25.41 | 1.432 | 1.183 | 1.021 | 0.8722
x2 = 0.6878 | 29.48 | 28.25 | 27.1 | 26.11 | 1.224 | 1.026 | 0.898 | 0.7775
x2 = 0.7679 | 30.53 | 29.32 | 28.17 | 27.17 | 1.079 | 0.9233 | 0.8218 | 0.7462
x2 = 0.8369 | 31.64 | 30.44 | 29.3 | 28.3 | 0.9874 | 0.8807 | 0.7949 | 0.7165
x2 = 0.8984 | 32.86 | 31.7 | 30.57 | 29.57 | 0.918 | 0.8403 | 0.7775 | 0.7082
x2 = 0.951 | 34.06 | 32.93 | 31.82 | 30.82 | 0.8665 | 0.8038 | 0.7541 | 0.6934
